As usually defined, the IC50 is the concentration needed to halve the response being measured.

Bounds are passed on as bounds.

The test concerns RS4;11 cells. As to the kind of experiment: Cell viability assay (CellTiter-Glo) in RS4;11 cells. To be noted: Homo sapiens, 72 h; RS4;11 cells; cell viability, 3 days, CellTiter-Glo; read-out: IC50. The format is cell-based. In a few lines:
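RS4;11 cells seeded at 5000 per well, exposed for 3 days to 8- or 12-point 3-fold serial dilutions. Viability read by CellTiter-Glo luminescence; IC50 fitted by nonlinear least-squares regression.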
For orientation: Cellular ATP, detected with luciferase, serves as a proxy for viable cell number.
In the case of `CS(=O)(=O)c1ccc(-c2cccc3nc(Nc4ccc(N5CCN(C(=O)CCCCC#Cc6ccc7c(c6)CN(C6CCC(=O)NC6=O)C7=O)CC5)cc4)nn23)cc1` (stereo not drawn) [JA-250, 3-(5-(7-(4-(4-((5-(4-(Methylsulfonyl)phenyl)-[1,2,4]triazolo[1,5-a]pyridin-2-yl)amino)phenyl)piperazin-1-yl)-7-oxohept-1-yn-1-yl)-1-oxoisoindolin-2-yl)piperidine-2,6-dione], the IC50 is 181 nM.

Consider `CS(=O)(=O)c1ccc(-c2cccc3nc(Nc4ccc(N5CCN(C(=O)CCCCCCc6ccc7c(c6)CN(C6CCC(=O)NC6=O)C7=O)CC5)cc4)nn23)cc1` (stereo not drawn) [JA-251, 3-(5-(7-(4-(4-((5-(4-(Methylsulfonyl)phenyl)-[1,2,4]triazolo[1,5-a]pyridin-2-yl)amino)phenyl)piperazin-1-yl)-7-oxoheptyl)-1-oxoisoindolin-2-yl)piperidine-2,6-dione], for which the IC50 came to 337 nM.

On to `CS(=O)(=O)c1ccc(-c2cccc3nc(Nc4ccc(N5CCN(CCCCCC#Cc6ccc7c(c6)C(=O)N(C6CCC(=O)NC6=O)C7=O)CC5)cc4)nn23)cc1` (stereo not drawn) [JA-252, 2-(2,6-dioxopiperidin-3-yl)-5-(7-(4-(4-((5-(4-(methylsulfonyl)phenyl)-[1,2,4]triazolo[1,5-a]pyridin-2-yl)amino)phenyl)piperazin-1-yl)hept-1-yn-1-yl)isoindoline-1,3-dione], for which the IC50 turned out to be 24.6 nM.

On to `CS(=O)(=O)c1ccc(-c2cccc3nc(Nc4ccc(N5CCN(CCCCCCCc6ccc7c(c6)C(=O)N(C6CCC(=O)NC6=O)C7=O)CC5)cc4)nn23)cc1` (stereo not drawn) [JA-253, 2-(2,6-Dioxopiperidin-3-yl)-5-(7-(4-(4-((5-(4-(methylsulfonyl)phenyl)-[1,2,4]triazolo[1,5-a]pyridin-2-yl)amino)phenyl)piperazin-1-yl)heptyl)isoindoline-1,3-dione], for which the IC50 worked out at 298 nM.

Turning to `CS(=O)(=O)c1ccc(-c2cccc3nc(Nc4ccc(N5CCN(CCCCCCNc6ccc7c(c6)C(=O)N(C6CCC(=O)NC6=O)C7=O)CC5)cc4)nn23)cc1` (stereo not drawn) [JA-254, 2-(2,6-Dioxopiperidin-3-yl)-5-((6-(4-(4-((5-(4-(methylsulfonyl)phenyl)-[1,2,4]triazolo[1,5-a]pyridin-2-yl)amino)phenyl)piperazin-1-yl)hexyl)amino)isoindoline-1,3-dione], the half-maximal inhibitory concentration (IC50) stood at 1150 nM.

Regarding `CS(=O)(=O)c1ccc(-c2cccc3nc(Nc4ccc(N5CCN(C(=O)CCCCCOc6ccc7c(c6)C(=O)N(C6CCC(=O)NC6=O)C7=O)CC5)cc4)nn23)cc1` (stereo not drawn) [JA-255, 2-(2,6-Dioxopiperidin-3-yl)-5-((6-(4-(4-((5-(4-(methylsulfonyl)phenyl)-[1,2,4]triazolo[1,5-a]pyridin-2-yl)amino)phenyl)piperazin-1-yl)-6-oxohexyl)oxy)isoindoline-1,3-dione], the half-maximal inhibitory concentration (IC50) worked out at 259 nM.

Regarding `CS(=O)(=O)c1ccc(-c2cccc3nc(Nc4ccc(N5CCN(CCCCCCOc6ccc7c(c6)C(=O)N(C6CCC(=O)NC6=O)C7=O)CC5)cc4)nn23)cc1` (stereo not drawn) [JA-256, 2-(2,6-Dioxopiperidin-3-yl)-5-((6-(4-(4-((5-(4-(methylsulfonyl)phenyl)-[1,2,4]triazolo[1,5-a]pyridin-2-yl)amino)phenyl)piperazin-1-yl)hexyl)oxy)isoindoline-1,3-dione], the IC50 stood at 1900 nM.

For the compound `O=C1CCC(N2C(=O)c3ccc(CCCCCCC(=O)N4CCC(n5cc(-c6cnc7cccc(-c8cc(F)c(CN9CCOCC9)c(F)c8)c7n6)cn5)CC4)cc3C2=O)C(=O)N1` (stereo not drawn) [JA-257, 5-(7-(4-(4-(8-(3,5-Difluoro-4-(morpholinomethyl)phenyl)quinoxalin-2-yl)-1H-pyrazol-1-yl)piperidin-1-yl)-7-oxoheptyl)-2-(2,6-dioxopiperidin-3-yl)isoindoline-1,3-dione], the IC50 came to 137 nM.

On to `O=C1CCC(N2C(=O)c3ccc(C#CCCCCC(=O)N4CCC(n5cc(-c6cnc7cccc(-c8cc(F)c(CN9CCOCC9)c(F)c8)c7n6)cn5)CC4)cc3C2=O)C(=O)N1` (stereo not drawn) [JA-258, 5-(7-(4-(4-(8-(3,5-Difluoro-4-(morpholinomethyl)phenyl)quinoxalin-2-yl)-1H-pyrazol-1-yl)piperidin-1-yl)-7-oxohept-1-yn-1-yl)-2-(2,6-dioxopiperidin-3-yl)isoindoline-1,3-dione], for which the IC50 is 647 nM.

In the case of `O=C1CCC(N2Cc3ccc(C#CCCCCC(=O)N4CCC(n5cc(-c6cnc7cccc(-c8cc(F)c(CN9CCOCC9)c(F)c8)c7n6)cn5)CC4)cc3C2=O)C(=O)N1` (stereo not drawn) [JA-259, 3-(6-(7-(4-(4-(8-(3,5-Difluoro-4-(morpholinomethyl)phenyl)quinoxalin-2-yl)-1H-pyrazol-1-yl)piperidin-1-yl)-7-oxohept-1-yn-1-yl)-1-oxoisoindolin-2-yl)piperidine-2,6-dione], the IC50 was > 10000 nM.

Take `O=C1CCC(N2C(=O)c3ccc(OCCCCCC(=O)N4CCC(n5cc(-c6cnc7cccc(-c8cc(F)c(CN9CCOCC9)c(F)c8)c7n6)cn5)CC4)cc3C2=O)C(=O)N1` (stereo not drawn) [JA-260, 5-((6-(4-(4-(8-(3,5-Difluoro-4-(morpholinomethyl)phenyl)quinoxalin-2-yl)-1H-pyrazol-1-yl)piperidin-1-yl)-6-oxohexyl)oxy)-2-(2,6-dioxopiperidin-3-yl)isoindoline-1,3-dione]: the IC50 was found to be 164 nM.

For the compound `CS(=O)(=O)c1ccc(-c2cccc3nc(Nc4ccc(N5CCN(C(=O)CCCCCOc6ccc7c(c6)CN(C6CCC(=O)NC6=O)C7=O)CC5)cc4)nn23)cc1` (stereo not drawn) [JA-261, 3-(5-((6-(4-(4-((5-(4-(methylsulfonyl)phenyl)-[1,2,4]triazolo[1,5-a]pyridin-2-yl)amino)phenyl)piperazin-1-yl)-6-oxohexyl)oxy)-1-oxoisoindolin-2-yl)piperidine-2,6-dione], the IC50 turned out to be 32.8 nM.

With `CS(=O)(=O)c1ccc(-c2cccc3nc(Nc4ccc(N5CCN(C(=O)CCCCC#Cc6ccc7c(c6)C(=O)N(C6CCC(=O)NC6=O)C7)CC5)cc4)nn23)cc1` (stereo not drawn) [JA-262, 3-(6-(7-(4-(4-((5-(4-(Methylsulfonyl)phenyl)-[1,2,4]triazolo[1,5-a]pyridin-2-yl)amino)phenyl)piperazin-1-yl)-7-oxohept-1-yn-1-yl)-1-oxoisoindolin-2-yl)piperidine-2,6-dione], the IC50 is > 10000 nM.

With `O=C1CCC(N2Cc3cc(OCCCCCC(=O)N4CCC(n5cc(-c6cnc7cccc(-c8cc(F)c(CN9CCOCC9)c(F)c8)c7n6)cn5)CC4)ccc3C2=O)C(=O)N1` (stereo not drawn) [JA-263, 3-(5-((6-(4-(4-(8-(3,5-difluoro-4-(morpholinomethyl)phenyl)quinoxalin-2-yl)-1H-pyrazol-1-yl)piperidin-1-yl)-6-oxohexyl)oxy)-1-oxoisoindolin-2-yl)piperidine-2,6-dione], the IC50 came out at 3.6 nM.

Consider `O=C1CCC(N2C(=O)c3ccc(C#CCCCCCN4CCC(n5cc(-c6cnc7cccc(-c8cc(F)c(CN9CCOCC9)c(F)c8)c7n6)cn5)CC4)cc3C2=O)C(=O)N1` (stereo not drawn) [JA-264, 5-(7-(4-(4-(8-(3,5-difluoro-4-(morpholinomethyl)phenyl)quinoxalin-2-yl)-1H-pyrazol-1-yl)piperidin-1-yl)hept-1-yn-1-yl)-2-(2,6-dioxopiperidin-3-yl)isoindoline-1,3-dione], for which the IC50 was 98.6 nM.

In the case of `O=C1CCC(N2C(=O)c3ccc(CCCCCCCN4CCC(n5cc(-c6cnc7cccc(-c8cc(F)c(CN9CCOCC9)c(F)c8)c7n6)cn5)CC4)cc3C2=O)C(=O)N1` (stereo not drawn) [JA-265, 5-(7-(4-(4-(8-(3,5-Difluoro-4-(morpholinomethyl)phenyl)quinoxalin-2-yl)-1H-pyrazol-1-yl)piperidin-1-yl)heptyl)-2-(2,6-dioxopiperidin-3-yl)isoindoline-1,3-dione], the IC50 was 1350 nM.

Take `O=C1CCC(N2C(=O)c3ccc(NCCCCCCN4CCC(n5cc(-c6cnc7cccc(-c8cc(F)c(CN9CCOCC9)c(F)c8)c7n6)cn5)CC4)cc3C2=O)C(=O)N1` (stereo not drawn) [JA-266, 5-((6-(4-(4-(8-(3,5-Difluoro-4-(morpholinomethyl)phenyl)quinoxalin-2-yl)-1H-pyrazol-1-yl)piperidin-1-yl)hexyl)amino)-2-(2,6-dioxopiperidin-3-yl)isoindoline-1,3-dione]: the IC50 turned out to be 301 nM.

As to `O=C1CCC(N2C(=O)c3ccc(OCCCCCCN4CCC(n5cc(-c6cnc7cccc(-c8cc(F)c(CN9CCOCC9)c(F)c8)c7n6)cn5)CC4)cc3C2=O)C(=O)N1` (stereo not drawn) [JA-267, 5-((6-(4-(4-(8-(3,5-Difluoro-4-(morpholinomethyl)phenyl)quinoxalin-2-yl)-1H-pyrazol-1-yl)piperidin-1-yl)hexyl)oxy)-2-(2,6-dioxopiperidin-3-yl)isoindoline-1,3-dione], the IC50 amounted to 426 nM.

Take `CS(=O)(=O)c1ccc(-c2cccc3nc(Nc4ccc(N5CCN(C(=O)CCCCCCc6ccc7c(c6)C(=O)N(C6CCC(=O)NC6=O)C7)CC5)cc4)nn23)cc1` (stereo not drawn) [JA-268, 3-(6-(7-(4-(4-((5-(4-(methylsulfonyl)phenyl)-[1,2,4]triazolo[1,5-a]pyridin-2-yl)amino)phenyl)piperazin-1-yl)-7-oxoheptyl)-1-oxoisoindolin-2-yl)piperidine-2,6-dione]: the IC50 was 5.4 nM.

For the compound `O=C1CCC(N2Cc3ccc(CCCCCCC(=O)N4CCC(n5cc(-c6cnc7cccc(-c8cc(F)c(CN9CCOCC9)c(F)c8)c7n6)cn5)CC4)cc3C2=O)C(=O)N1` (stereo not drawn) [JA-269, 3-(6-(7-(4-(4-(8-(3,5-difluoro-4-(morpholinomethyl)phenyl)quinoxalin-2-yl)-1H-pyrazol-1-yl)piperidin-1-yl)-7-oxoheptyl)-1-oxoisoindolin-2-yl)piperidine-2,6-dione], the IC50 turned out to be 3.8 nM.

Turning to `O=C1CCC(N2Cc3cc(CCCCCCC(=O)N4CCC(n5cc(-c6cnc7cccc(-c8cc(F)c(CN9CCOCC9)c(F)c8)c7n6)cn5)CC4)ccc3C2=O)C(=O)N1` (stereo not drawn) [JA-270, 3-(5-(7-(4-(4-(8-(3,5-Difluoro-4-(morpholinomethyl)phenyl)quinoxalin-2-yl)-1H-pyrazol-1-yl)piperidin-1-yl)-7-oxoheptyl)-1-oxoisoindolin-2-yl)piperidine-2,6-dione], the IC50 turned out to be 562 nM.

The values are drawn from patent publication US20230093099A1, “COMPOUNDS AND METHODS OF TREATING CANCERS” (CULLGEN (SHANGHAI), INC., priority 2019, published 2023).
